Measurements: patent US12486250B2, “Muscarinic receptor 4 antagonists and methods of use” (Neurocrine Biosciences, Inc., priority 2019, dated 2025)
pKi: −log10 of the molar value.

Legend:
[1] = target: T1, MDR1 (Multidrug resistance protein 1) (Homo sapiens, UniProt P08183); test: MDCK-MDR1 assay (apparent permeability and efflux ratio); assay type: in vitro ADME; conditions: for Papp A→B at 2 h, 5 µM / Papp B→A at 2 h, 5 μM: MDCK-MDR1, pH 7.4, 2 hours at 37° C.; for Papp A→B at 2 h, 5 µM: apical to basolateral; for Papp B→A at 2 h, 5 μM: basolateral to apical; for efflux ratio at 2 h, 5 µM: MDCK-MDR1, pH 7.4, Papp B>A/Papp A>B
T1 construct: host or cells: MDCK cells
Method: Apparent permeability and efflux ratios were generated by Absorption Systems LLP, Exton, PA MDCK cells transfected with human MDR1 (Multidrug resistance protein 1) were grown as monolayers on microporous membranes in 12-well assay plates. Each compound was evaluated at a single concentration equal to 5 μM. The assay buffer consisted of Hanks' balanced salt solution pH 7.4 containing 10 mM HEPES and 15 mM glucose. Test article diluted in assay buffer was dosed to the apical chambers of cell monolayer plates to determine apical to basolateral (A to B) permeability. Basolateral to apical (B to A) permeability was determined by addition of dosing solution to the basolateral chambers. […] Cell monolayers dosed with test article were incubated for 2 hours at 37° C., 5% CO2 in a humidified incubator. Samples were collected from both donor and receiver chambers at 2 hours then prepared for LC-MS/MS analysis using electrospray ionization. Duplicate measurements of A to B and B to A permeability were collected for each compound. Efflux ratio was calculated using the following formula: Papp B>A/Papp A>B. Controls were incorporated to ensure cell monolayer integrity (lucifer yellow) and activity of MDR1 protein (digoxin).

human M4 receptor = target: T2, human M4 receptor (Homo sapiens, UniProt P08173); test: Radioligand ([3H]N-methylscopolamine) binding assay, CHO cell membranes; conditions: 1.5 nM tritiated N-methylscopolamine, 90 minutes at 37° C.; read-out: Binding affinity (Ki) M4
T2 construct: expressed in transfected cells; host or cells: CHO cells
T2 sequence (P08173 1-479): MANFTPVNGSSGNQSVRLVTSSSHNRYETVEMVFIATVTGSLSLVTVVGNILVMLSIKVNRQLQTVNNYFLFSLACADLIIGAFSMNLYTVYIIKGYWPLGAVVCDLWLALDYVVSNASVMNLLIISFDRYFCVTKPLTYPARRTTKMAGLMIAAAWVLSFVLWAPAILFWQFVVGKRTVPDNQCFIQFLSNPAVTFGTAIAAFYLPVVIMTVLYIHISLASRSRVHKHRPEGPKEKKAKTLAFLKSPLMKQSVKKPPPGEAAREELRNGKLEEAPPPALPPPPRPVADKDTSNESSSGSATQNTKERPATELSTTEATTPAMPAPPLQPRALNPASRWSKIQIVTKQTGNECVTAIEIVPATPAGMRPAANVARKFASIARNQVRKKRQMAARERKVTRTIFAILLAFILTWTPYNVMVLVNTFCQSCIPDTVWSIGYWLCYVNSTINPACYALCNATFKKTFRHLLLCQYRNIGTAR
Method: (§1) Binding affinity (Ki) of compounds was measured by inhibition of radioligand binding to membranes from CHO cells expressing human M1, M2, M3, M4 and M5 receptors. Membranes were prepared by nitrogen cavitation and differential centrifugation as previously described (Hoare et al., Mol. Pharmacol. 2003 March; 63(3): 751-65). The radioligand employed was tritiated N-methylscopolamine, used at a concentration of 1.5 nM. A dose-response of twelve concentrations of compound was used, ranging from […]. The assay buffer was 50 mM HEPES, 100 mM NaCl, 5 mM MgCl2, 1 mM ethylenediaminetetraacetic acid, pH-adjusted to pH 7.4. Membranes, radioligand and compound were incubated together for 90 minutes at 37° C., in a total volume of 150 μL in a 96-well plate. Receptor-bound radioligand was then collected by harvesting the assay over glass fiber filters pretreated with polyethylenimine to trap the cell membranes, using rapid vacuum filtration. Harvesting and radioactivity counting was conducted as previously described (see, e.g., Hoare et al., Mol. Pharmacol. 2003 63(3):751-65); Erratum at Mol. Pharmacol. 2005 July; 68(1): 260).

human M2 receptor = target: T3, human M2 receptor (Homo sapiens, UniProt P08172); test: as above; conditions: 1.5 nM tritiated N-methylscopolamine, 90 minutes at 37° C.; read-out: Binding affinity (Ki) M2
T3 construct: expressed in transfected cells; host or cells: CHO cells
T3 sequence (P08172 1-466): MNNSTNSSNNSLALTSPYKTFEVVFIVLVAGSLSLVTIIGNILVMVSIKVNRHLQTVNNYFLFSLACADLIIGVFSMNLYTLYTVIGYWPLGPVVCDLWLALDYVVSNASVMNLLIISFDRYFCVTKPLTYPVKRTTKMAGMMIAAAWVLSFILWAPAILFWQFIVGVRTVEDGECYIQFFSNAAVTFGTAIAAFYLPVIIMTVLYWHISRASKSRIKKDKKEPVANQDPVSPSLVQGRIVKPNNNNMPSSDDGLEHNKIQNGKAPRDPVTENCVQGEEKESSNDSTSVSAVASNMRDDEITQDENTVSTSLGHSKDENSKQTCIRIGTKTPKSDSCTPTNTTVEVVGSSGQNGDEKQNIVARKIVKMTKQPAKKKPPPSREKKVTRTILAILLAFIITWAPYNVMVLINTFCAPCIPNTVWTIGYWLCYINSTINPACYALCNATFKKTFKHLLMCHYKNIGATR
Method: as §1

| Papp A→B at 2 h, 5 µM [1] | Papp B→A at 2 h, 5 μM [1] | efflux ratio at 2 h, 5 µM [1] | pKi (human M4 receptor) | pKi (human M2 receptor) | Compound |
| --- | --- | --- | --- | --- | --- |
| 150 nm/s | 213 nm/s | 1.42 | 8.74 | 5.73 | C[C@@H]1CN(c2cnc(C(F)(F)F)cn2)C[C@H](C)N1C(=O)OCCC1CCN(Cc2ccccc2)CC1 [Compound 1, 2-(1-benzylpiperidin-4-yl)ethyl (2R,6S)-2,6-dimethyl-4-[5-(trifluoromethyl)pyrazin-2-yl]piperazine-1-carboxylate] |
| 175 nm/s | 241 nm/s | 1.38 | 8.40 | 6.57 | C[C@@H]1CN(c2cnc(C(F)(F)F)cn2)C[C@@H](C)N1C(=O)OCCC1CCN(Cc2ccccc2)CC1 [Compound 2, 2-(1-benzylpiperidin-4-yl)ethyl (2R,6R)-2,6-dimethyl-4-[5-(trifluoromethyl)pyrazin-2-yl]piperazine-1-carboxylate] |
| 5.3 nm/s | 512 nm/s | 96.6 | 8.52 | 6.28 | C[C@@H]1CN(c2ncc(C#N)cn2)C[C@H](C)N1C(=O)NCCC1CCN(Cc2ccccc2)CC1 [Compound 3A] |
| 5.5 nm/s | 686 nm/s | 125 | 8.30 | 6.18 | C[C@@H]1CN(c2cnc(C(F)(F)F)cn2)C[C@@H](C)N1C(=O)NCCC1CCN(Cc2ccccc2)CC1 [Compound 4A] |
